Laboratory results as given in ChEMBL document CHEMBL5705893, “Targeting the mitotic checkpoint for cancer therapy with NMS-P715, an inhibitor of MPS1 kinase” (Cancer Res, 2010).
Activity calls are given as the source filed them. No cut-off for these calls is given here.

What was measured:
[1] = system: HOP-62; experiment: Antiproliferative activity against human HOP-62 cells assessed as inhibition of cell growth incubated for 72 hrs by celltiter-glo assay; format: functional, cell-based; details: HOP-62, 72 h
[2] = system: HL-60; experiment: Antiproliferative activity against human HL-60 cells assessed as inhibition of cell growth incubated for 72 hrs by celltiter-glo assay; format: functional, cell-based; details: HL-60, 72 h
[3] = system: SW1417; experiment: Antiproliferative activity against human SW1417 cells assessed as inhibition of cell growth incubated for 72 hrs by celltiter-glo assay; format: functional, cell-based; details: SW1417, 72 h
[4] = system: NCI-H1770; experiment: Antiproliferative activity against human NCI-H1770 cells assessed as inhibition of cell growth incubated for 72 hrs by celltiter-glo assay; format: functional, cell-based; details: NCI-H1770, 72 h
[5] = target: Mitogen-activated protein kinase 14 (Homo sapiens, UniProt Q16539); experiment: Inhibition of recombinant P38alpha (unknown origin)
Sequence of Mitogen-activated protein kinase 14 (Q16539 whole entry): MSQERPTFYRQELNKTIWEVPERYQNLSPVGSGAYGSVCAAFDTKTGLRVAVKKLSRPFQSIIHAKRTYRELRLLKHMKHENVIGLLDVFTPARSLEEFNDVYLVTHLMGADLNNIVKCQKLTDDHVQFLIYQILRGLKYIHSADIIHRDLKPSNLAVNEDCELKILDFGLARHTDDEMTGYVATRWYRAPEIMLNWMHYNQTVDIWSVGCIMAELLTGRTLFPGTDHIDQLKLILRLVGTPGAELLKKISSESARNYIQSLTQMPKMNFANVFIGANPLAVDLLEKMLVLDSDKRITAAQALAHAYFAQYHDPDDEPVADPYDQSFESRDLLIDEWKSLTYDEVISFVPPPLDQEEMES

[6] = system: SUD4; experiment: Antiproliferative activity against human SU-DHL-4 cells assessed as inhibition of cell growth incubated for 72 hrs by celltiter-glo assay; format: functional, cell-based; details: SU-DHL-4, 72 h
[7] = Antiproliferative activity against human COLO 206F cells assessed as inhibition of cell growth incubated for 72 hrs by celltiter-glo assay; format: functional, cell-based
[8] = system: OVCAR-8; experiment: Antiproliferative activity against human OVCAR-8 cells assessed as inhibition of cell growth incubated for 72 hrs by celltiter-glo assay; format: functional, cell-based; details: OVCAR-8, 72 h
[9] = target: ALK tyrosine kinase receptor (Homo sapiens, UniProt Q9UM73); experiment: Inhibition of recombinant ALK (unknown origin)
Sequence of ALK tyrosine kinase receptor (Q9UM73 whole entry): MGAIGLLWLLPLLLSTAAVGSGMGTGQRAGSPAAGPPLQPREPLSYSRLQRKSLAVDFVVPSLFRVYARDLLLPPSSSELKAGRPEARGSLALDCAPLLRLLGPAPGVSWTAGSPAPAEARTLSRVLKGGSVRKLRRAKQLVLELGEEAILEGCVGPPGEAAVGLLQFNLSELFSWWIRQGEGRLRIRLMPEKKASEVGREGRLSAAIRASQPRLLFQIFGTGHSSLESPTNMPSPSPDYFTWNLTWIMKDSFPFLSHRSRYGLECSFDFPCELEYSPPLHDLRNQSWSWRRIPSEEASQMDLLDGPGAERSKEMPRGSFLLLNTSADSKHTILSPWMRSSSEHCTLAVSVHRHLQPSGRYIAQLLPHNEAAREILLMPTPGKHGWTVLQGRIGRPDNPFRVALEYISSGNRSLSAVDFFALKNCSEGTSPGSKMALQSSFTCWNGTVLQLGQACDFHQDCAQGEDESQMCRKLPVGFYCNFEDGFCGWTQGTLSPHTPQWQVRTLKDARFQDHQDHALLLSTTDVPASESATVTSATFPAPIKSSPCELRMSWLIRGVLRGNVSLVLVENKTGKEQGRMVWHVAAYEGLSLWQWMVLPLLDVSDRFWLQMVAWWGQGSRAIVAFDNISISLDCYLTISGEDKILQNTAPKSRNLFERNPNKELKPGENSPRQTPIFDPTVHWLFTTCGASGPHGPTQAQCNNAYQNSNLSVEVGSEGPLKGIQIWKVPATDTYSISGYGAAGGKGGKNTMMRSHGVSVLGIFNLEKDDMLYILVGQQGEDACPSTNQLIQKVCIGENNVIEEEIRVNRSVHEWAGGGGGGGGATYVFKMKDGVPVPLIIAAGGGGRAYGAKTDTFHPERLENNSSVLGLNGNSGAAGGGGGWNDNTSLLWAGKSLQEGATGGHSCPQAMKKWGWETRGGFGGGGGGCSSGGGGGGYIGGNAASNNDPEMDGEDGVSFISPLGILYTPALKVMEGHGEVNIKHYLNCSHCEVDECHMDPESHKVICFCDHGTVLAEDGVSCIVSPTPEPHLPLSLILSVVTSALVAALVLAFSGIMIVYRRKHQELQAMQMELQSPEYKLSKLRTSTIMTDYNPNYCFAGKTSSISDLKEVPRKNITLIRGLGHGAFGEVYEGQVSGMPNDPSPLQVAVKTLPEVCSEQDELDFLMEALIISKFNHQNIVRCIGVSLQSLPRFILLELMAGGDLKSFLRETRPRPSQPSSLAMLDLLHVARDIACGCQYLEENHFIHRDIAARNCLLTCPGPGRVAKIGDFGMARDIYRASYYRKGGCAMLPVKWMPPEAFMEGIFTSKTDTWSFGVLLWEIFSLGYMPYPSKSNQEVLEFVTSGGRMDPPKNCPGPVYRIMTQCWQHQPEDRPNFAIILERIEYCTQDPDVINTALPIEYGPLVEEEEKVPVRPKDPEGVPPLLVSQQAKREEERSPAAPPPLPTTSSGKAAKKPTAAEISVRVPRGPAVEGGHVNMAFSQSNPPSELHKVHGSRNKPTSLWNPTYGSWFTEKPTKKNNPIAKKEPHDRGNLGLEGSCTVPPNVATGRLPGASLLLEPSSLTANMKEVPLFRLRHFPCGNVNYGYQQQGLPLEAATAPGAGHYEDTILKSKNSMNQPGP

[10] = system: HeLa; experiment: Effect on HEC1 level in human nocodazole-arrested HeLa cells at 1 micromol/L in presence of MG132; format: functional, cell-based; details: dose 1.0 µmol/L
[11] = system: T98G; experiment: Antiproliferative activity against human T98G cells assessed as inhibition of cell growth incubated for 72 hrs by celltiter-glo assay; format: functional, cell-based
[12] = Antiproliferative activity against human GM13705 cells assessed as inhibition of cell growth incubated for 72 hrs by celltiter-glo assay; format: functional, cell-based; details: GM13705, 72 h
[13] = system: A2780; experiment: Antitumor activity against human A2780 cells xenografted in Athymic nu-nu nude mouse assessed as reduction in histone H3 phosphorylation at 100 mg/kg, po administered for 2 days and measured after 6 hrs by Western blot analysis; format: functional, organism-based; details: time 54.0 hrs
[14] = target: Serine/threonine-protein kinase pim-1 (Homo sapiens, UniProt P11309); experiment: Inhibition of recombinant PIM1 (unknown origin)
Sequence of Serine/threonine-protein kinase pim-1 (P11309 whole entry): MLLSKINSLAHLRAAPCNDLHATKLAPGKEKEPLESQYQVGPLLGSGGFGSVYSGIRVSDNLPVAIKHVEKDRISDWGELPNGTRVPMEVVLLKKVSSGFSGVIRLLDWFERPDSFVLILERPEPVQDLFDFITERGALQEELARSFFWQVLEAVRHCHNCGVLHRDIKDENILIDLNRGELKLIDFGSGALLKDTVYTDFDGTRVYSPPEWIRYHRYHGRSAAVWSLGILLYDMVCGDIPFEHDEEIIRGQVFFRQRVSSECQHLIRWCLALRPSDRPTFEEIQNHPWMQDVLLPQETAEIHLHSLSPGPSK

[15] = target: Serine/threonine-protein kinase PAK 4 (Homo sapiens, UniProt O96013); experiment: Inhibition of recombinant PAK4 (unknown origin)
Sequence of Serine/threonine-protein kinase PAK 4 (O96013 whole entry): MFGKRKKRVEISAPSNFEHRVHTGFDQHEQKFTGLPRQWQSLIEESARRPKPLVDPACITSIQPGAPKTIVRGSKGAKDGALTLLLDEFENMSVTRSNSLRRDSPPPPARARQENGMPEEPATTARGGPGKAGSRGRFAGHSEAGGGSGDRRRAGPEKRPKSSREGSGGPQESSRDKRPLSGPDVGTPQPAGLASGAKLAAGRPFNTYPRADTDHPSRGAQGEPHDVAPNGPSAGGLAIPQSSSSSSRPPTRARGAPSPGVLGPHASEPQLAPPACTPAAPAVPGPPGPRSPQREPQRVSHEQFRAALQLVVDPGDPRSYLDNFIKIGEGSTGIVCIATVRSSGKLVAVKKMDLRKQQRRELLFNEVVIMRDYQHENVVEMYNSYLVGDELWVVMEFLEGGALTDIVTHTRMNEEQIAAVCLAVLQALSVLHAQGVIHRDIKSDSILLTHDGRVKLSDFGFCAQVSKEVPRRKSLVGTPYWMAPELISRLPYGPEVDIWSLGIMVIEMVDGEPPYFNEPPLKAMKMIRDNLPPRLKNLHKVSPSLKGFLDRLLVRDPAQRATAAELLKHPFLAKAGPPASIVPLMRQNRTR

[16] = Antiproliferative activity against human GM14788 cells assessed as inhibition of cell growth incubated for 72 hrs by celltiter-glo assay; format: functional, cell-based; details: GM14788, 72 h
[17] = target: Maternal embryonic leucine zipper kinase (Homo sapiens, UniProt Q14680); experiment: Inhibition of recombinant MELK (unknown origin) preincubated for 60 mins
Sequence of Maternal embryonic leucine zipper kinase (Q14680 whole entry): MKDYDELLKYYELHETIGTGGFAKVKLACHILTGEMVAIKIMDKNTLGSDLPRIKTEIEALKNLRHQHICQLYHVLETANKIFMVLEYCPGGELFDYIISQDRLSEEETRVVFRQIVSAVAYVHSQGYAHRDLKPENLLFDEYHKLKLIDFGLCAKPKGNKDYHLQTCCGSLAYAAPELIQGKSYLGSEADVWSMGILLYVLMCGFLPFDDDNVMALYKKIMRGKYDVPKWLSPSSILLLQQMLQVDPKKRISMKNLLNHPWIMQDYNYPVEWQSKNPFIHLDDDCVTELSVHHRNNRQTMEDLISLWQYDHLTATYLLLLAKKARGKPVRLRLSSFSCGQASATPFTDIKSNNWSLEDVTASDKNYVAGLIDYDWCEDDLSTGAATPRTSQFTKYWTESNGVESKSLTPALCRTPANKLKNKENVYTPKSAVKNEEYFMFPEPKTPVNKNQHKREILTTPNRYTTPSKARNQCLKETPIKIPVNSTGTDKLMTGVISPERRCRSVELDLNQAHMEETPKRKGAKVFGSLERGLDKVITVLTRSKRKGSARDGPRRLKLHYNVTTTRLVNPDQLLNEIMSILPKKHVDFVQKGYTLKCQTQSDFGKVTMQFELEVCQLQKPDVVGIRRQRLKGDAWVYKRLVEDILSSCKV

[18] = system: HeLa; experiment: Induction of mitotic arrest in human nocodazole-arrested HeLa cells assessed as delocalization of MAD1 in presence of MG132; format: functional, cell-based
[19] = system: SK-MEL-2; experiment: Antiproliferative activity against human SK-MEL-2 cells assessed as inhibition of cell growth incubated for 72 hrs by celltiter-glo assay; format: functional, cell-based; details: SK-MEL-2, 72 h
[20] = system: U2OS; experiment: Antiproliferative activity against human U2OS cells assessed as inhibition of cell growth incubated for 72 hrs by celltiter-glo assay; format: functional, cell-based
[21] = target: Receptor-type tyrosine-protein kinase FLT3 (Homo sapiens, UniProt P36888); experiment: Inhibition of recombinant FLT3 (unknown origin)
[22] = system: OPM-2; experiment: Antiproliferative activity against human OPM-2 cells assessed as inhibition of cell growth incubated for 72 hrs by celltiter-glo assay; format: functional, cell-based; details: OPM-2, 72 h
[23] = system: COLO-741; experiment: Antiproliferative activity against human COLO-741 cells assessed as inhibition of cell growth incubated for 72 hrs by celltiter-glo assay; format: functional, cell-based; details: COLO-741, 72 h
[24] = system: HeLa; experiment: Induction of mitotic arrest in human nocodazole-arrested HeLa cells assessed as delocalization of BUB3 at 1 micromol/L in presence of MG132; format: functional, cell-based; details: dose 1.0 µmol/L
[25] = system: SET-2; experiment: Antiproliferative activity against human SET2 cells assessed as inhibition of cell growth incubated for 72 hrs by celltiter-glo assay; format: functional, cell-based; details: SET-2, 72 h
[26] = system: A-375; experiment: Antitumor activity against human A-375 cells xenografted in Athymic nu-nu nude mouse assessed as tumor growth inhibition at 100 mg/kg, po measured after 10 days; format: functional; details: A-375, 240 h, time 10 day, read-out: TGI
[27] = system: PC-3; experiment: Antiproliferative activity against human PC-3 cells assessed as inhibition of cell growth incubated for 72 hrs by celltiter-glo assay; format: functional, cell-based; details: PC-3, 72 h
[28] = Volume of distribution at steady state in Athymic nu-nu mouse at 10 mg/kg, iv measured upto 24 hrs by LC-MS/MS analysis; format: ADME, organism-based; details: in vivo, read-out: Vdss
[29] = system: BJ; experiment: Inhibition of colony formation in human BJ cells assessed as decrease in colony number at 0.5 to 3 uM incubated for 72 hrs followed by compound washout and measured after 18 days by crystal violet staining based assay; format: functional, cell-based; details: dose 0.5-3 µM
[30] = system: CCRF-CEM; experiment: Antiproliferative activity against human CCRF-CEM cells assessed as inhibition of cell growth incubated for 72 hrs by celltiter-glo assay; format: functional, cell-based
[31] = system: NCI-H889; experiment: Antiproliferative activity against human NCI-H889 cells assessed as inhibition of cell growth incubated for 72 hrs by celltiter-glo assay; format: functional, cell-based; details: NCI-H889, 72 h
[32] = Cmax in Athymic nu-nu mouse at 100 mg/kg, po measured upto 24 hrs by LC-MS/MS analysis; format: ADME, organism-based; details: in vivo
[33] = system: 786-0; experiment: Antiproliferative activity against human 786-0 cells assessed as inhibition of cell growth incubated for 72 hrs by celltiter-glo assay; format: functional, cell-based; details: 786-0, 72 h
[34] = system: SU-DHL-8; experiment: Antiproliferative activity against human SU-DHL-8 cells assessed as inhibition of cell growth incubated for 72 hrs by celltiter-glo assay; format: functional, cell-based; details: SU-DHL-8, 72 h
[35] = target: Vascular endothelial growth factor receptor 3 (Homo sapiens, UniProt P35916); experiment: Inhibition of recombinant VEGFR3 (unknown origin)
Sequence of Vascular endothelial growth factor receptor 3 (P35916 whole entry): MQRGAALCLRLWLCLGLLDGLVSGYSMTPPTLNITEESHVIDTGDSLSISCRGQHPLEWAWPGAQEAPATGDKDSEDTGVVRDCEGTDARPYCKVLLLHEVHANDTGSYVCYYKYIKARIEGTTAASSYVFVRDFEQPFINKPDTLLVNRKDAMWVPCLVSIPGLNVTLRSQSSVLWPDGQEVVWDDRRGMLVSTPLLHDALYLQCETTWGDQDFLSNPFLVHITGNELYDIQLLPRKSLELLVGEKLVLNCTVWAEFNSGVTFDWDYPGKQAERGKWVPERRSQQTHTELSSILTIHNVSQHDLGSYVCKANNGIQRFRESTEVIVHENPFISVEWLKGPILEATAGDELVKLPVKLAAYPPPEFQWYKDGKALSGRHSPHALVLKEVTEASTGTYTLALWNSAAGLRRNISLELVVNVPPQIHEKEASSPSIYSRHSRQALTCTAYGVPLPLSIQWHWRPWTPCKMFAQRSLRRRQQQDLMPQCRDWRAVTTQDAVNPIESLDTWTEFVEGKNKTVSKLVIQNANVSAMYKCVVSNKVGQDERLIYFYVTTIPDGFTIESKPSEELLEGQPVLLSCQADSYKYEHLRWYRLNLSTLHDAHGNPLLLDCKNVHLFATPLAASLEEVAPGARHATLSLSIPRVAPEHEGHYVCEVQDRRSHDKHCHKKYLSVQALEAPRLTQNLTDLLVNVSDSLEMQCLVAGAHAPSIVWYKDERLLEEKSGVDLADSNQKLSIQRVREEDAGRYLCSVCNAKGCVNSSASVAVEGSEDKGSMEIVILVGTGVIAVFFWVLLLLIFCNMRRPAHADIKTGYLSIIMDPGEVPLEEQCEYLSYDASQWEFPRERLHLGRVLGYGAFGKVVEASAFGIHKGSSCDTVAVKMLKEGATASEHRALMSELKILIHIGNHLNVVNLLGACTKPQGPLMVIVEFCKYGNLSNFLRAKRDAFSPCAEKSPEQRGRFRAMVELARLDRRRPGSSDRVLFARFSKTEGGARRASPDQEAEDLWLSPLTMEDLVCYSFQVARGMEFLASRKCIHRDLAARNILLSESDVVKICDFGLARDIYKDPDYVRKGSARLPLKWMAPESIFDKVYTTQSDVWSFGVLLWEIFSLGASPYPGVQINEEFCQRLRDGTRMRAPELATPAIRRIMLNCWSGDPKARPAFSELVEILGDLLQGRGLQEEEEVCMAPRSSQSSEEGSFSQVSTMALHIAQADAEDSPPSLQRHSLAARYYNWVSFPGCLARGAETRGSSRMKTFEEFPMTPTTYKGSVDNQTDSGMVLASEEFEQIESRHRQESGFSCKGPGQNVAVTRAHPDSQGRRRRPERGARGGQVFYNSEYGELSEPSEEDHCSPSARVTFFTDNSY

[36] = system: NCI-H23; experiment: Antiproliferative activity against human NCI-H23 cells assessed as inhibition of cell growth incubated for 72 hrs by celltiter-glo assay; format: functional, cell-based; details: NCI-H23, 72 h
[37] = system: U-266; experiment: Antiproliferative activity against human U-266 cells assessed as inhibition of cell growth incubated for 72 hrs by celltiter-glo assay; format: functional, cell-based; details: U-266, 72 h
[38] = system: HT1197; experiment: Antiproliferative activity against human HT1197 cells assessed as inhibition of cell growth incubated for 72 hrs by celltiter-glo assay; format: functional, cell-based; details: HT1197, 72 h
[39] = system: DU-145; experiment: Antiproliferative activity against human DU-145 cells assessed as inhibition of cell growth incubated for 72 hrs by celltiter-glo assay; format: functional, cell-based; details: DU-145, 72 h
[40] = system: SU-DHL-6; experiment: Antiproliferative activity against human SU-DHL-6 cells assessed as inhibition of cell growth incubated for 72 hrs by celltiter-glo assay; format: functional, cell-based; details: SU-DHL-6, 72 h
[41] = Half life in Athymic nu-nu mouse at 10 mg/kg, po measured upto 24 hrs by LC-MS/MS analysis; format: ADME, organism-based; details: in vivo

IC50 [2]: 1.58 µM
IC50 [3]: 8.84 µM
IC50 [4]: 4.42 µM
IC50 [5]: > 10 µM
IC50 [8]: 1.21 µM
IC50 [9]: > 10 µM
IC50 [14]: > 10 µM
IC50 [15]: > 10 µM
IC50 [17]: < 10 µM
IC50 [19]: 1.49 µM
IC50 [20]: 2.09 µM
IC50 [21]: > 10 µM
IC50 [23]: 10 µM
IC50 [27]: 1.99 µM
Vd [28]: 5.45 L/kg
IC50 [30]: 1.43 µM
IC50 [31]: 1.26 µM
Cmax [32]: 1790 nM
IC50 [33]: 0.917 µM
IC50 [34]: 0.829 µM
IC50 [35]: > 10 µM
IC50 [36]: 1.22 µM
IC50 [39]: 1.93 µM
IC50 [40]: 10 µM
half-life [41]: 8.01 h
SMILES: CCc1cccc(CC)c1NC(=O)c1nn(C)c2c1CCc1cnc(Nc3ccc(C(=O)NC4CCN(C)CC4)cc3OC(F)(F)F)nc1-2
IC50 [1]: 7.77 µM
IC50 [6]: 1.6 µM
IC50 [7]: 1.24 µM
Activity [10]: Active
IC50 [11]: 0.203 µM
IC50 [12]: 10 µM
Activity [13]: Active
IC50 [16]: 10 µM
Activity [18]: Active
IC50 [22]: 2.31 µM
Activity [24]: Active
IC50 [25]: 10 µM
inhibition in vivo at 100 mg/kg [26]: 43%
Activity [29]: Active
IC50 [37]: 5.93 µM
IC50 [38]: 8.3 µM
